Target: Casein kinase II subunit alpha (Rattus norvegicus, UniProt P19139)
Assay: CK2 Phosphorylation Assay
Details: pH 7.5; 37 °C
Method: Inhibitory effect of test compound was assessed in reaction buffer containing purified CK2, synthetic peptide substrate, and [gamma-33P]ATP. Assays were stopped by addition of 0.5 M orthophosphoric acid before spotting aliquots onto phosphocellulose filters. Filters were washed in 75 mM phosphoric acid (5-10 mL/each) four times then once in methanol and dried before counting. Inhibition constants were determined from Lineweaver-Burk double-reciprocal plots of data obtained in experiments run at fixed concentration of peptide substrate and at increasing concentrations of ATP either in the absence or in the presence of variable concentrations of inhibitor. Alternatively inhibition constants were also deduced from the IC50/Ki Cheng-Prusoff relationship.

Chain of Casein kinase II subunit alpha (P19139 whole entry): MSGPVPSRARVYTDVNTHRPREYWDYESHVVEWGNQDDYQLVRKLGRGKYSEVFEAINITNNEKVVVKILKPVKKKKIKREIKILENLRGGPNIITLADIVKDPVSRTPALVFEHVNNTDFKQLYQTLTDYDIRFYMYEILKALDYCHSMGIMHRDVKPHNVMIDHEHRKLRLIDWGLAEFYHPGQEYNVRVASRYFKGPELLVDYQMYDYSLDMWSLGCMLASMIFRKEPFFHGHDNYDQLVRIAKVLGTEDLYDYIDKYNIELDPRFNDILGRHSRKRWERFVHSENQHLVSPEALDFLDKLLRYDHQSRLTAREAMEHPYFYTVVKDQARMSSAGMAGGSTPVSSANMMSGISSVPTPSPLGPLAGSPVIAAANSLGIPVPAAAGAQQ

With Brc1c(I)c(I)c2[nH]cnc2c1I [iodinated benzimidazole, 3a] as the molecule, how does the Ki read?
The Ki was 100 nM.

— BindingDB's records for doi:10.1016/j.bmc.2009.08.047 (University of Padova, 2009)
